Laboratory results from patent publication US20240253033A1, “MICROFLUIDIC DETECTION SYSTEM WITH ADJUSTABLE FLOW CONTROL” (priority 2022, published 2024).

What was measured:
E coli MG1655 = E coli MG1655 spiked in urine
Description: To obtain spiked human samples, first human urine was centrifuged at 5000 rcf for 5 minutes to remove large particles. It was subsequently spiked with 5×10^5 CFU ml^−1 and mixed with a solution of Resazurin to a final concentration of 0.02%. No antibiotics were added for the control aliquots, 32 μg/mL Ampicillin was added for resistant aliquots and 16 μg/mL Kanamycin was added for susceptible aliquots. The aliquots were incubated at 37° C. different periods starting from 0 minutes incubation till 60 minutes with a time step of 5 minutes.
According to the Infectious Diseases Society of America (IDSA), 105 CFU ml^−1 and 102 CFU ml^−1 were spiked in-vivo in urine, serum, and nasal swab of donors to simulate urinary tract infection, wound infection, and pneumonia by MRSA, respectively. Human urine was spiked with different concentrations of E. coli (FIG. 32D). As a control the healthy human biofluids were screened as received.

S. pneumonia [1] = test: Conventional broth microdilution (BMD) MIC; assay type: cell-based, Streptococcus pneumoniae
Description: (§1) For clinical MIC, bacteria were streaked on LB agar overnight and resuspended in a water aliquot. The aliquot was measured, and the bacteria concentration was adjusted to of 10^6 CFU ml^−1 in LB media. A 96 well plate with an antibiotic gradient from 128 μg/ml to 0.125 μg/ml in a 2-fold concentration dilution step was prepared with a positive control with no antibiotics. Next, the bacteria were introduced to each well of the 96 well plate for a final bacteria concentration of 5×10^5 CFU ml^−1. The well plates were cultured overnight the minimum inhibitory concentration was determined as the antibiotic concentration that didn't show any signs of bacterial growth.

A. baumannii [2] = test: Conventional broth microdilution (BMD) MIC; assay type: cell-based, Acinetobacter baumannii
Description: as §1

K. pneumonia [3] = test: QolorAST minimum inhibitory concentration (MIC) test; assay type: cell-based, Klebsiella pneumoniae
Description: (§2) Acinetobacter baumannii, Enterococcus faecalis, Enterococcus faecium, Streptococcus agalactiae, Enterobacter cloacae, Klebsiella pneumoniae, Streptococcus pneumoniae, E coli MG1655, and E coli Trimethoprim resistant were streaked on LB miller agar overnight at 37° C. and resuspended in water aliquot. Next, the bacterial concentration was determined using optical density technique. Subsequently, aliquots of different concentrations were prepared for the antibiotic susceptibility testing experiments in CamHB growth media.
(§3) 5×10^5 CFU ml^−1 Oxacillin-resistant S. aureus aliquots were prepared using resazurin/oxacillin solution using different concentrations of oxacillin antibiotic (16 μg/mL, 32 μg/mL, and 64 μg/mL). 5×10^5 CFU ml^−1 Cipro.
(§4) A minimum inhibitory concentration (MIC) was performed to study the QolorAST broad applicability in detecting bacterial resistance profiles and ensuring timely and efficient antimicrobial theraby. […] The antibiotics cover major bacterial inhibition mechanisms as inhibition of protein synthesis, cell wall synthesis, and/or DNA synthesis.
(§5) QolorAST exploited two methodologies: Manual MIC (MA-MIC) and support vector machine MIC (SVM-MIC). […] The SVM-MIC was carried out with a rbf kernel that was optimized and trained to predict the color change of the preclinical images using our library of bacteria images collected under different conditions including images where color is changed, color transitioning, and no color change. The SVM successfully classified the condition's bacteria-antibiotic in the concentration range studied.

S. agalactiae [4] = test: as above; assay type: cell-based, Streptococcus agalactiae
Description: as §2, §3, §4, §5

K. pneumonia [5] = test: Conventional broth microdilution (BMD) MIC; assay type: cell-based, Klebsiella pneumoniae
Description: as §1

S. pneumonia [6] = test: QolorAST minimum inhibitory concentration (MIC) test; assay type: cell-based, Streptococcus pneumoniae
Description: as §2, §3, §4, §5

S. agalactiae [7] = test: Conventional broth microdilution (BMD) MIC; assay type: cell-based, Streptococcus agalactiae
Description: as §1

A. baumannii [8] = test: QolorAST minimum inhibitory concentration (MIC) test; assay type: cell-based, Acinetobacter baumannii
Description: as §2, §3, §4, §5

E. cloacae [9] = test: Conventional broth microdilution (BMD) MIC; assay type: cell-based, Enterobacter cloacae
Description: as §1

E. cloacae [10] = test: QolorAST minimum inhibitory concentration (MIC) test; assay type: cell-based, Enterobacter cloacae
Description: as §2, §3, §4, §5

COc1cc(Cc2cnc(N)nc2N)cc(OC)c1OC [Trimethoprim]
MIC (E coli MG1655): 0.312 mL⁻¹ | resistance profile based on the CLSI MIC cut off values (E coli MG1655): susceptible

Colistin
Broth Microdilution MIC (MIC) (S. pneumonia [1]): >128 | Broth Microdilution MIC (MIC) (A. baumannii [2]): 8 | MA-MIC/SVM-MIC/MIC Category (K. pneumonia [3]): R/R/R | QolorAST MIC Manual (MA-MIC) (K. pneumonia [3]): 8 µg/mL | QolorAST MIC SVM (SVM-MIC) (K. pneumonia [3]): 8 µg/mL | MA-MIC/SVM-MIC/MIC Category (S. agalactiae [4]): R/R/R* | QolorAST MIC Manual (MA-MIC) (S. agalactiae [4]): 128 µg/mL | QolorAST MIC SVM (SVM-MIC) (S. agalactiae [4]): > 128 µg/mL | resistance or susceptibility (S. agalactiae [4]): resistant | Broth Microdilution MIC (MIC) (K. pneumonia [5]): 8 | MA-MIC/SVM-MIC/MIC Category (S. pneumonia [6]): R/R/R* | QolorAST MIC Manual (MA-MIC) (S. pneumonia [6]): > 128 µg/mL | QolorAST MIC SVM (SVM-MIC) (S. pneumonia [6]): > 128 µg/mL | Broth Microdilution MIC (MIC) (S. agalactiae [7]): 128 | MA-MIC/SVM-MIC/MIC Category (A. baumannii [8]): R/R/R | QolorAST MIC Manual (MA-MIC) (A. baumannii [8]): 8 µg/mL | QolorAST MIC SVM (SVM-MIC) (A. baumannii [8]): 8 µg/mL | MIC (A. baumannii [8]; both manually and through SVM): 8 µg/mL | Broth Microdilution MIC (MIC) (E. cloacae [9]): 4 | MA-MIC/SVM-MIC/MIC Category (E. cloacae [10]): R/R/R | QolorAST MIC Manual (MA-MIC) (E. cloacae [10]): 4 µg/mL | QolorAST MIC SVM (SVM-MIC) (E. cloacae [10]): 4 µg/mL
